Several values for one entry are separate records, joined by “and”; a condition that tells them apart may be missing. Equal values may be shown once. Read-outs that look alike come from different tables or passages of the source.

Data set [1] concerns cerebellar granule neurons. To be noted: for % neuronal survival Mean ± SD: 24 hours, percent of HK control. The protocol:
These compounds were analyzed for their neuroprotective activity in vitro. Granule neuron cultures were obtained from dissociated cerebella of 7-8 day old Wistar rats as known to one of ordinary skill in the art. Cells were plated in Basal Eagle's Medium with Earles salts (BME) supplemented with 10% fetal calf serum (FCS), 25 mM KCl, 2 mM glutamine (Invitrogen), and 100 μg/ml gentamycin on dishes (Nunc) coated with poly-L-lysine in 24-well dishes at a density 1×10^6 cells/well. Cytosine arabinofuranoside (10 μM) was added to the culture medium 18-22 hours after plating to prevent replication of non-neuronal cells that yields highly pure culture of granule neurons. The neuronal cultures were maintained for 7-8 days prior to treatments.
This experimental model of neuronal apoptosis has been used widely used to understand the molecular mechanisms underlying neurodegeneration and to identify biological and chemical agents with neuroprotective efficacy. For this, the cells were rinsed once and then maintained in low K^+ medium (serum-free BME medium, 5 mM KCl; referred to as LK), or in the case of control cultures, in high K^+ medium (serum-free BME medium, supplemented with 20 mM KCl; referred to as HK). Each compound was tested at three different concentrations of 1 μM, 5 μM, and 25 μM. The 25 μM concentration was included to evaluate neurotoxicity. For treatments, the chemical compounds (dissolved in dimethylsulfoxide) were added directly to LK medium at the time of the switch from HK at concentrations of 1 μM, 5 μM, or 25 μM. Viability was assessed 24 hours later. Each compound was tested in duplicate (at each of the concentrations) and the experiment repeated at least 3 times. Although all compounds were solubilized in dimethylsulfoxide (DMSO), the amount of DMSO in the cultures never exceeded 0.1% (v/v).
The viability status of neuronal cultures treated with HK, LK, or LK medium supplemented with various compounds was evaluated by phase contrast microscopy and quantified by staining cell nuclei with 4′,6′-diamidino2-phenylindole hydrochloride (DAPI). Briefly, the cells were fixed in 4% paraformaldehyde for 20 minutes at 4′C. After washing in phosphate buffered saline, DAPI (1 μg/ml in phosphate buffered saline) was added for 15 min at room-temperature and viewed under ultraviolet light (260 nm). Cells with condensed or fragmented nuclei were scored as dead. […] Statistical analysis was performed using an unpaired, two-tailed Student's t test, compared to mean neuronal survival of control cultures receiving LK treatment and the quantitative data are presented in Tables 1 and 2 for each compound.

Data set [2] is described as follows: Z/E isomer stability in DMSO-d6 by NMR. Type of data set: physicochemical. The conditions noted are these: 6 hours from mixing.
Where [3] appears, read: LK medium, concentration not specified.

With `O=C1Nc2ccc([N+](=O)[O-])cc2/C1=C/c1cc(Br)c(O)c(Br)c1` [Compound 21, (Z)-3-(3′,5′-Dibromo-4-hydroxybenzylidene)-5-nitroindolin-2-one], the “neuroprotective activity (in words)” value in data set [1] (setting [3]) is on record as “superior to Compound 1”. Further, the “% neuronal survival Mean ± SD” value in data set [1] (Table 1, 1 μM in LK medium) was determined as 79.9 ± 12.81%; in data set [1] (Table 1, 5 μM in LK medium) it was 78.4 ± 31.66%; in data set [1] (Table 1, 25 μM in LK medium), 71.3 ± 19.80%. Further, the “percent of Z configuration after 6 hours” value in data set [2] is reported as 70%.

In the case of `CC(=O)c1ccc2c(c1)/C(=C/c1cc(Br)c(O)c(Br)c1)C(=O)N2` [Compound 34, (Z)-5-Acetyl-3-(3′,5′-dibromo-4′-hydroxybenzylidene)indolin-2-one], the “neuroprotective activity (in words)” value in data set [1] (setting [3]) is “superior to Compound 1”; in data set [1] (at 1 μM and 5 μM (two lower concentrations)), “impressive neuroprotection”. Further, the “% neuronal survival Mean ± SD” value in data set [1] (Table 1, 1 μM in LK medium) was 96.8% and 96.8 ± 6.15 %; in data set [1] (Table 1, 5 μM in LK medium), 110.3% and 110.3 ± 8.50 %; in data set [1] (Table 1, 25 μM in LK medium), 2.2 ± 1.63 %.

Regarding `O=C1Nc2ccc(Br)cc2/C1=C/c1cc(Br)cc(Br)c1` [Compound 17, (Z)-5-Bromo-3-(3′,5′-dibromobenzylidene)indolin-2-one], the “% neuronal survival Mean ± SD” value is 54.7 ± 8.56% in data set [1] (Table 1, 1 μM in LK medium); 45.4 ± 3.05% in data set [1] (Table 1, 5 μM in LK medium); 46.9 ± 7.74% in data set [1] (Table 1, 25 μM in LK medium).

In the case of `CC(=O)c1ccc2c(c1)/C(=C/c1ccc[nH]1)C(=O)N2` [Compound 38], the “neuroprotective activity (in words)” value in data set [1] (setting [3]) is given as “moderate protective activity”. In addition, the “% neuronal survival Mean ± SD” value in data set [1] (Table 2, 1 μM in LK medium) was 69.5 ± 12.61%; in data set [1] (Table 2, 5 μM in LK medium), 87.3 ± 22.50%; in data set [1] (Table 2, 25 μM in LK medium), 87.1 ± 24.50%.

Turning to `COc1cc(/C=C2\C(=O)Nc3ccccc32)cc(OC)c1OC` [Compound 3, (Z)-3-(3′, 4′,5′-Trimethoxybenzylidene)indolin-2-one], the “neuroprotective activity (in words)” value is “reduced activity” in data set [1] (setting [3]) and “not protective” in data set [1] (at all three concentrations). Besides, the “% neuronal survival Mean ± SD” value in data set [1] (Table 1, 1 μM in LK medium) turned out to be 50.8 ± 7.50%; in data set [1] (Table 1, 5 μM in LK medium), 59.9 ± 7.98%; in data set [1] (Table 1, 25 μM in LK medium), 61.3 ± 11.35%.

As for `CN(C)c1ccc(/C=C2/C(=O)Nc3ccc(Br)cc32)cc1` [Compound 20, (E)-5-Bromo-3-(4′-(dimethylamino)benzylidene)indolin-2-one], the “neuroprotective activity (in words)” value in data set [1] (setting [3]) was “not effective”. Further, the “% neuronal survival Mean ± SD” value is recorded as 56.5 ± 2.28% in data set [1] (Table 1, 1 μM in LK medium); 54.9 ± 9.18% in data set [1] (Table 1, 5 μM in LK medium); 68.6 ± 9.38% in data set [1] (Table 1, 25 μM in LK medium).

As for `O=C1Nc2ccccc2C1=CC=Cc1ccccc1` [Compound 4, 3-(3′-Phenylallylidene)indolin-2-one], the “neurotoxicity (in words)” value in data set [1] is listed as “non-toxic”. Besides, the “neuroprotective activity (in words)” value in data set [1] (setting [3]) is “moderately protective”; in data set [1] (at all three concentrations), “moderately efficacious”. Besides, the “% neuronal survival Mean ± SD” value in data set [1] (Table 1, 1 μM in LK medium) was 86.0 ± 2.03 %; in data set [1] (Table 1, 5 μM in LK medium) it was 83.6 ± 18.88%; in data set [1] (Table 1, 25 μM in LK medium) it was 81.1 ± 6.22 %.

Regarding `O=C1Nc2ccc(F)cc2/C1=C/c1ccc[nH]1` [Compound 40], the “neuroprotective activity (in words)” value in data set [1] (setting [3]) was “highest neuroprotective activity”; in data set [1] (at 25 μM / high doses) it was “the most effective one”. For the same molecule, the “% neuronal survival Mean ± SD” value in data set [1] (Table 2, 1 μM in LK medium) came to 58.4 ± 3.98%; in data set [1] (Table 2, 5 μM in LK medium) it was 65.7 ± 0.07%; in data set [1] (Table 2, 25 μM in LK medium), 96.6 ± 1.91 %.

In the case of `O=C1Nc2ccccc2/C1=C/c1ccccc1[N+](=O)[O-]` [Compound 6], the “% neuronal survival Mean ± SD” value in data set [1] (Table 1, 1 μM in LK medium) worked out at 75.8 ± 3.20 %; in data set [1] (Table 1, 5 μM in LK medium) it was 76.6 ± 7.14%; in data set [1] (Table 1, 25 μM in LK medium) it was 81.5 ± 13.72%.

Regarding `COc1ccc(/C=C2/C(=O)Nc3ccc(Br)cc32)cc1` [Compound 19, (E)-5-Bromo-3-(4′-methoxybenzylidene)indolin-2-one], the “neuroprotective activity (in words)” value in data set [1] (setting [3]) is reported as “not effective”. The “% neuronal survival Mean ± SD” value in data set [1] (Table 1, 1 μM in LK medium) was determined as 57.1 ± 4.51%; in data set [1] (Table 1, 5 μM in LK medium), 59.5 ± 9.10%; in data set [1] (Table 1, 25 μM in LK medium), 60.5 ± 9.56%.

For `O=C1Nc2ccc(Cl)cc2/C1=C\c1c(Cl)cccc1Cl` [Compound 11, (E)-5-Chloro-3-(2′,6′-dichlorobenzylidene)indolin-2-one], the “% neuronal survival Mean ± SD” value in data set [1] (Table 1, 1 μM in LK medium) is 56.4 ± 14.41%; in data set [1] (Table 1, 5 μM in LK medium), 63.8 ± 3.46%; in data set [1] (Table 1, 25 μM in LK medium) it was 45.7 ± 24.05%.

In the case of `COc1cc(/C=C2\C(=O)Nc3ccc(Br)cc32)cc(OC)c1OC` [Compound 18, (Z)-5-Bromo-3-(3′, 4′,5′-trimethoxybenzylidene)indolin-2-one], the “neuroprotective activity (in words)” value in data set [1] (setting [3]) was “not effective”. The “% neuronal survival Mean ± SD” value in data set [1] (Table 1, 1 μM in LK medium) is on record as 50.8 ± 7.67%; in data set [1] (Table 1, 5 μM in LK medium) it was 59.9 ± 12.94%; in data set [1] (Table 1, 25 μM in LK medium) it was 61.3 ± 1.20%.

Take `O=C1Nc2ccccc2/C1=C/c1cccs1` [Compound 41, (Z)-3-(Thien-2′-ylmethylene)indolin-2-one]: the “% neuronal survival Mean ± SD” value in data set [1] (Table 2, 1 μM in LK medium) turned out to be 68.3 ± 13.16%; in data set [1] (Table 2, 5 μM in LK medium), 77.1 ± 13.16%; in data set [1] (Table 2, 25 μM in LK medium) it was 86.2 ± 4.03 %. For the same molecule, the “neuroprotective activity (in words)” value in data set [1] (at 25 μM / high doses) is given as “moderately active”.

Take `O=C1Nc2ccc([N+](=O)[O-])cc2/C1=C/c1ccccc1` [Compound 25, (Z)-3-Benzylidene-5-nitroindolin-2-one]: the “% neuronal survival Mean ± SD” value in data set [1] (Table 1, 1 μM in LK medium) amounted to 80.1 ± 18.01%; in data set [1] (Table 1, 5 μM in LK medium) it was 78.4 ± 17.54%; in data set [1] (Table 1, 25 μM in LK medium) it was 54.3 ± 3.63%. The “neuroprotective activity (in words)” value in data set [1] (at all three concentrations) is on record as “moderately efficacious”.

For the molecule `COc1cc(/C=C2\C(=O)Nc3ccc(Cl)cc32)cc(OC)c1OC` [Compound 10, (Z)-5-Chloro-3-(3′, 4′,5′-trimethoxybenzylidene)indolin-2-one], the “% neuronal survival Mean ± SD” value in data set [1] (Table 1, 1 μM in LK medium) turned out to be 81.1 ± 9.81 %; in data set [1] (Table 1, 5 μM in LK medium), 71.0 ± 7.26 %; in data set [1] (Table 1, 25 μM in LK medium), 57.1 ± 10.13%.

Take `O=C1Nc2ccc(Cl)cc2/C1=C\c1cc(Br)c(O)c(Br)c1` [Compound 7, (E)-3-(3′,5′-Dibromo-4-hydroxybenzylidene)-5-chlorondolin-2-one]: the “neurotoxicity (in words)” value in data set [1] is reported as “not toxic”. In addition, the “% neuronal survival Mean ± SD” value in data set [1] (Table 1, 1 μM in LK medium) is 84.3 ± 1.04 %; in data set [1] (Table 1, 5 μM in LK medium) it was 91.9% and 91.9 ± 5.31 %; in data set [1] (Table 1, 25 μM in LK medium) it was 81.8 ± 14.94 %. For the same molecule, the “neuroprotective activity (in words)” value in data set [1] (at 5 μM) was “highly effective”. Moreover, in data set [2], the “percent of Z configuration after 6 hours” value worked out at 70%.

For the molecule `Cc1ccc(/C=C2\C(=O)Nc3ccc([N+](=O)[O-])cc32)cc1` [Compound 28, (Z)-3-(4′-Methylbenzylidene)-5-nitroindolin-2-one], the “% neuronal survival Mean ± SD” value in data set [1] (Table 1, 1 μM in LK medium) was found to be 54.6 ± 7.48%; in data set [1] (Table 1, 5 μM in LK medium) it was 60.0 ± 1.87%; in data set [1] (Table 1, 25 μM in LK medium) it was 54.3 ± 0.49%.

Take `Cc1ccc(/C=C2/C(=O)Nc3ccc(Cl)cc32)cc1` [Compound 13, (E)-5-Chloro-3-(4′-methybenzylidene)indolin-2-one]: the “% neuronal survival Mean ± SD” value in data set [1] (Table 1, 1 μM in LK medium) was found to be 70.0 ± 17.50%; in data set [1] (Table 1, 5 μM in LK medium), 70.6 ± 13.86%; in data set [1] (Table 1, 25 μM in LK medium) it was 67.4 ± 17.40%.

Take `O=C1Nc2ccccc2/C1=C\c1cc(Br)c(O)c(Br)c1` [Compound 1, (E)-3-(3′,5′-Dibromo-4′-hydroxybenzylidene)indolin-2-one]: the “neurotoxicity (in words)” value in data set [1] is “not toxic”. The “neuroprotective activity (in words)” value in data set [1] (setting [3]) was “moderately effective”. The “% neuronal survival Mean ± SD” value is recorded as 69.7 ± 2.19 % in data set [1] (Table 1, 1 μM in LK medium); 88.4 ± 11.74 % in data set [1] (Table 1, 5 μM in LK medium); 84.6 ± 7.57 % in data set [1] (Table 1, 25 μM in LK medium). For the same molecule, the “percent of Z configuration after 6 hours” value in data set [2] worked out at 50%.

For `O=C1Nc2ccc([N+](=O)[O-])cc2/C1=C\c1c(Cl)cccc1Cl` [Compound 24, (E)-3-(2′,6′-Dichlorobenzylidene)-5-nitroindolin-2-one], the “% neuronal survival Mean ± SD” value in data set [1] (Table 1, 1 μM in LK medium) stood at 76.4 ± 9.84 %; in data set [1] (Table 1, 5 μM in LK medium), 69.9 ± 11.25%; in data set [1] (Table 1, 25 μM in LK medium) it was 70.7 ± 8.50%.
